Results as given in ChEMBL document CHEMBL1201862, “PubChem BioAssay data set” (2004).
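Following 48 hours of exposure in 96-well plates, responses at five concentrations were used to interpolate endpoints linearly. At the GI50, growth is halved.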 Active and inactive are the calls of the source. No stated cut-off is given here; in the data, active = GI50 up to about 1.1 µM and inactive = higher.

How the values were obtained:
Test in all cases: NCI-60 cell line screen, 48 h
786-0 = test system: 786-0
A498 = test system: A498
A549 = test system: A549
ACHN = test system: ACHN
CAKI-1 = test system: CAKI-1
CCRF-CEM = test system: CCRF-CEM
COLO 205 = test system: COLO 205
DLD-1 = test system: DLD-1
DMS-114 = test system: DMS-114
DMS-273 = test system: DMS-273
EKVX = test system: EKVX
HCC 2998 = test system: HCC 2998
HCT-116 = test system: HCT-116
HCT-15 = test system: HCT-15
HOP-62 = test system: HOP-62
HT-29 = test system: HT-29
IGROV-1 = test system: IGROV-1
K562 = test system: K562
KM-20L2 = test system: KM-20L2
KM12 = test system: KM12
LOX IMVI = test system: LOX IMVI
LXFL 529 = test system: LXFL 529
M14 = test system: M14
MOLT-4 = test system: MOLT-4
Malme-3M = test system: Malme-3M
NCI-H226 = test system: NCI-H226
NCI-H460 = test system: NCI-H460
NCI-H522 = test system: NCI-H522
OVCAR-3 = test system: OVCAR-3
OVCAR-5 = test system: OVCAR-5
OVCAR-8 = test system: OVCAR-8
RPMI-8226 = test system: RPMI-8226
RXF 393 = test system: RXF 393
RXF 631 = test system: RXF 631
SF-268 = test system: SF-268
SF-295 = test system: SF-295
SF-539 = test system: SF-539
SK-MEL-2 = test system: SK-MEL-2
SK-MEL-5 = test system: SK-MEL-5
SK-OV-3 = test system: SK-OV-3
SN12C = test system: SN12C
SNB-19 = test system: SNB-19
SNB-75 = test system: SNB-75
SNB-78 = test system: SNB-78
SW-620 = test system: SW-620
TK-10 = test system: TK-10
U-251 = test system: U-251
UACC-257 = test system: UACC-257
UACC-62 = test system: UACC-62
UO-31 = test system: UO-31
XF498 = test system: XF498
HL-60 = test system: HL-60
HOP-18 = test system: HOP-18
HOP-92 = test system: HOP-92
M19-MEL = test system: M19-MEL
NCI-H23 = test system: NCI-H23
OVCAR-4 = test system: OVCAR-4
SK-MEL-28 = test system: SK-MEL-28

O=c1cc(O)cc2n1CCC2
GI50 (786-0): > 100 µM (inactive)
GI50 (A498): > 100 µM (inactive)
GI50 (A549): > 100 µM (inactive)
GI50 (ACHN): > 100 µM (inactive)
GI50 (CAKI-1): > 100 µM (inactive)
GI50 (CCRF-CEM): > 100 µM (inactive)
GI50 (COLO 205): > 100 µM (inactive)
GI50 (DLD-1): > 100 µM (inactive)
GI50 (DMS-114): > 100 µM (inactive)
GI50 (DMS-273): > 100 µM (inactive)
GI50 (EKVX): > 100 µM (inactive)
GI50 (HCC 2998): > 100 µM (inactive)
GI50 (HCT-116): > 100 µM (inactive)
GI50 (HCT-15): > 100 µM
GI50 (HOP-62): > 100 µM (inactive)
GI50 (HT-29): > 100 µM (inactive)
GI50 (IGROV-1): > 100 µM (inactive)
GI50 (K562): > 100 µM (inactive)
GI50 (KM-20L2): > 100 µM (inactive)
GI50 (KM12): > 100 µM (inactive)
GI50 (LOX IMVI): > 100 µM (inactive)
GI50 (LXFL 529): > 100 µM (inactive)
GI50 (M14): > 100 µM (inactive)
GI50 (MOLT-4): > 100 µM (inactive)
GI50 (Malme-3M): > 100 µM (inactive)
GI50 (NCI-H226): > 100 µM (inactive)
GI50 (NCI-H460): > 100 µM (inactive)
GI50 (NCI-H522): > 100 µM (inactive)
GI50 (OVCAR-3): > 100 µM (inactive)
GI50 (OVCAR-5): > 100 µM (inactive)
GI50 (OVCAR-8): > 100 µM (inactive)
GI50 (RPMI-8226): > 100 µM (inactive)
GI50 (RXF 393): > 100 µM (inactive)
GI50 (RXF 631): > 100 µM (inactive)
GI50 (SF-268): > 100 µM (inactive)
GI50 (SF-295): > 100 µM (inactive)
GI50 (SF-539): > 100 µM (inactive)
GI50 (SK-MEL-2): > 100 µM (inactive)
GI50 (SK-MEL-5): > 100 µM (inactive)
GI50 (SK-OV-3): > 100 µM (inactive)
GI50 (SN12C): > 100 µM (inactive)
GI50 (SNB-19): > 100 µM (inactive)
GI50 (SNB-75): > 100 µM (inactive)
GI50 (SNB-78): > 100 µM (inactive)
GI50 (SW-620): > 100 µM (inactive)
GI50 (TK-10): > 100 µM (inactive)
GI50 (U-251): > 100 µM (inactive)
GI50 (UACC-257): > 100 µM (inactive)
GI50 (UACC-62): > 100 µM (inactive)
GI50 (UO-31): > 100 µM (inactive)
GI50 (XF498): > 100 µM (inactive)

CCOC(=O)C(=O)Nc1cccc(Cl)c1C
GI50 (786-0): > 100 µM (inactive)
GI50 (A549): > 100 µM (inactive)
GI50 (ACHN): > 100 µM (inactive)
GI50 (CAKI-1): > 100 µM (inactive)
GI50 (CCRF-CEM): > 100 µM (inactive)
GI50 (COLO 205): > 100 µM (inactive)
GI50 (DLD-1): > 100 µM (inactive)
GI50 (DMS-114): > 100 µM (inactive)
GI50 (EKVX): > 100 µM (inactive)
GI50 (HCC 2998): > 100 µM (inactive)
GI50 (HCT-116): > 100 µM (inactive)
GI50 (HCT-15): > 100 µM
GI50 (HL-60): > 100 µM (inactive)
GI50 (HOP-18): > 100 µM (inactive)
GI50 (HOP-62): > 100 µM (inactive)
GI50 (HOP-92): > 100 µM (inactive)
GI50 (HT-29): > 100 µM (inactive)
GI50 (IGROV-1): > 100 µM (inactive)
GI50 (K562): > 100 µM (inactive)
GI50 (KM12): > 100 µM (inactive)
GI50 (LOX IMVI): > 100 µM (inactive)
GI50 (LXFL 529): > 100 µM (inactive)
GI50 (M14): > 100 µM (inactive)
GI50 (M19-MEL): > 100 µM (inactive)
GI50 (MOLT-4): > 100 µM (inactive)
GI50 (Malme-3M): > 100 µM (inactive)
GI50 (NCI-H226): > 100 µM (inactive)
GI50 (NCI-H23): > 100 µM (inactive)
GI50 (NCI-H460): > 100 µM (inactive)
GI50 (NCI-H522): > 100 µM (inactive)
GI50 (OVCAR-3): > 100 µM (inactive)
GI50 (OVCAR-4): > 100 µM (inactive)
GI50 (OVCAR-5): > 100 µM (inactive)
GI50 (OVCAR-8): > 100 µM (inactive)
GI50 (RPMI-8226): > 100 µM (inactive)
GI50 (RXF 393): > 100 µM (inactive)
GI50 (RXF 631): > 100 µM (inactive)
GI50 (SF-268): > 100 µM (inactive)
GI50 (SF-295): > 100 µM (inactive)
GI50 (SF-539): > 100 µM (inactive)
GI50 (SK-MEL-28): > 100 µM (inactive)
GI50 (SK-MEL-2): > 100 µM (inactive)
GI50 (SK-MEL-5): > 100 µM (inactive)
GI50 (SK-OV-3): > 100 µM (inactive)
GI50 (SN12C): > 100 µM (inactive)
GI50 (SNB-19): > 100 µM (inactive)
GI50 (SNB-78): > 100 µM (inactive)
GI50 (SW-620): > 100 µM (inactive)
GI50 (TK-10): > 100 µM (inactive)
GI50 (U-251): > 100 µM (inactive)
GI50 (UACC-257): > 100 µM (inactive)
GI50 (UACC-62): > 100 µM (inactive)
GI50 (UO-31): > 100 µM (inactive)
GI50 (XF498): 49.8 µM (inactive)
